Results reported in US9636380B2 (priority 2013, dated 2017).

Experiments:
AMPA receptor = experiment: Whole-cell recording of light-evoked EPSCs (LDT inputs) in DA neurons projecting to NAc lateral shell, midbrain slices; format: cell-based, mice; conditions: 10 μM bath perfusion; stimulation of LDT fibers; −70 mV
Protocol: (§1) Mice were deeply anaesthetized with pentobarbital (200 mg/kg ip; Ovation Pharmaceuticals, Deerfield, Ill.). Coronal midbrain slices (250 μm) were prepared after intracardial perfusion with ice-cold artificial cerebrospinal fluid (ACSF) containing elevated sucrose (in mM): 50 sucrose, 125 NaCl, 25 NaHCO3, 2.5 KCl, 1.25 NaH2PO4, 0.1 CaCl2, 4.9 MgCl2, and 2.5 glucose (oxygenated with 95% O2/5% CO2). After 90 min of recovery, slices were transferred to a recording chamber and perfused continuously at 2-4 ml/min with oxygenated ACSF (125 NaCl, 25 NaHCO3, 2.5 KCl, 1.25 NaH2PO4, 11 glucose, 1.3 MgCl2, and 2.5 CaCl2) at ˜30° C. […]
(§2) Labeled DA neurons were visualized with a 40× water-immersion objective on an upright fluorescent microscope (BX51WI, Olympus USA) equipped with infrared-differential interference contrast (IR-DIC) video microscopy and epifluorescence (Olympus USA) for detection of retrobeads. […] A dual lamp house adapter (Olympus USA) was used to switch between fluorescence lamp and LED light source. Excitatory postsynaptic currents (EPSCs) were recorded in whole-cell voltage clamp (Multiclamp 700B, Molecular Devices, CA, USA), filtered at 2 KHz, digitized at 10 KHz (ITC-18 interface, HEKA) and collected on-line using custom Igor Pro software (Wavemetrics, Lake Oswego, Oreg., USA). […]

GABAA receptors = experiment: Whole-cell recording of light-evoked IPSCs (LHb inputs) in DA cells projecting to NAc lateral shell, midbrain slices; format: cell-based, mice; conditions: 50 μM bath perfusion; LHb input stimulation; n=3; p<0.0001
Protocol: as §1, §2

## N#Cc1cc2[nH]c(=O)c(=O)[nH]c2cc1[N+](=O)[O-] [CNQX]
AMPA receptor
  Effect on light-evoked EPSCs in DA neurons projecting to NAc lateral shell: blocked

## picrotoxin
GABAA receptors
  Effect on light-evoked IPSCs in DA cells projecting to NAc lateral shell: blocked
